# Entries after “also recorded” stand apart in the source; their conditions may differ. Where a name gives a salt, the structure may show the parent alone.
# Key:
# platelets [1] = details: cited from earlier work
# [2] = cited from earlier work
# platelets in PRP = assay: Mouse platelet aggregation assay (PRP); type: cell-based
# Excerpt: Mouse platelet aggregation assay. […] Platelet-rich plasma (PRP) was used for platelet aggregation assay. […] Same volume of vehicle (DMSO or saline)-treated platelets was used as controls.
# C57Bl6 wild type mice = assay: Western diet induced body weight gain; type: in vivo, mouse; details: gavage 1 mg/kg/day, western diet TD.88137, vs saline, hydrochloride
# Excerpt: To determine if inhibition of TYMP could attenuate or inhibit obesity in vivo, C57Bl6 wild type mice were fed with a western diet (TD.88137, 42% calories from fat), started from 6 to 8 […], to facilitate their weight gain. […] Mice received the same volume of saline feeding as a control. Body weight gain was monitored weekly, and data were presented as mean of the accumulated weight gain from each mice at each week. N=3 in the saline-feeding group, and 2 in the TPI-feeding group.
# platelets [3] = assay: Cellix flow chamber-based platelet adhesion and aggregation assay; type: cell-based, mouse
# Procedure: Cellix flow chamber-based platelet adhesion and aggregation assay. Cellix flow chambers were coated with collagen 10 μg/mL in PBS. Whole blood was drawn from mouse IVC using 0.109 M sodium citrate as an anticoagulant, stained with Rhodamine 6G, and then used for the flow chamber mediated adhesion and aggregation assay. Some of the whole blood was treated with or without TPI before it was perfused into the chamber.
# [4] = tested on: WT mice fed a western diet; assay: FeCl3 thrombosis model under hyperlipidemia (western diet); type: in vivo, mouse; details: TPI 1 mg/kg for one week, WD 4 weeks
# Excerpt: Examination of the effect of TYMP inhibition on thrombosis under hyperlipidemia. WT mice were fed a western diet (WD, TD.88137) for a total of 4 weeks. […] These mice were then subjected to the thrombosis study using the 7.5% FeCl3 induced thrombosis model.
# Apoe^−/− mice = assay: Apoe−/− mice on WD gavage fed with TPI: liver fat accumulation and atherosclerotic lesions (Oil Red O); type: in vivo, mouse; details: gavage 60 μg/Kg/day, 4 weeks, vs saline
# Excerpt: As mentioned above, TYMP enhances platelet activation in vitro and promotes thrombosis in vivo, making TYMP a potential target for antithrombotic therapy. […] Age-matched Apoe^−/− mice on WD fed with saline were used as controls.
# [5] = as component of Lonsurf (TAS-102); no systemic bleeding observed; cited from earlier work
# WT mice [6] = assay: 7.5% FeCl3 induced carotid artery thrombosis model, drug given before injury; type: in vivo, mouse; details: for lowest effective dose with significant antithrombotic effect: gavage for one week; for lowest dose in inhibiting mouse thrombosis: in vivo
# Procedure: (§1) Murine carotid artery thrombosis model and tail bleeding assay. Detailed ferric chloride (FeCl3) induced carotid artery thrombosis model has been described before. […] The endpoints were set as follows: 1) blood flow has ceased for >30 seconds; or 2) occlusion is not seen after 30 minutes of FeCl3 injury. […] In some experiments, a jugular vein catheter prepared with P-10 tubing was placed for drug administration after 5 minutes of thrombus initiation. Thrombus formation was continually monitored using the endpoints mentioned above. Tail bleeding assay was either conducted on mice immediately after the thrombosis study or on mice that were not used for the in vivo thrombosis study. […] Tail bleeding assay was conducted on these mice immediately after the thrombosis study.
# AKT = assay: ADP-induced AKT phosphorylation in platelets (immunoblot); type: cell-based, mouse; details: 50 μM TPI, 2.5 μM ADP, especially the second phase
# Procedure: Evaluation of platelet signaling activation. Platelets in PRP were stimulated with 2.5 μM ADP for 0, 1, 3, and 5 minutes, then lysed with radioimmunoprecipitation assay (RIPA) buffer containing proteinase/phosphatase inhibitor cocktail. The lysates were subsequently used for AKT activation immunoblotting assays. ADP-stimulated p-selectin expression was analyzed by flow cytometry.
# WT mice [7] = assay: FeCl3 thrombosis model, bolus injection via jugular vein catheter 5 minutes after thrombus initiation; type: in vivo, mouse
# Procedure: Murine carotid artery thrombosis model and tail bleeding assay. Detailed ferric chloride (FeCl3) induced carotid artery thrombosis model has been described before. Vessel injury was induced by 7.5% FeCl3 solution to the carotid artery for 1 minute. […] The endpoints were set as follows: 1) blood flow has ceased for >30 seconds; or 2) occlusion is not seen after 30 minutes of FeCl3 injury. In this case, 30 minutes was assigned to that mouse for the statistical analysis. In some experiments, a jugular vein catheter prepared with P-10 tubing was placed for drug administration after 5 minutes of thrombus initiation. Thrombus formation was continually monitored using the endpoints mentioned above. Tail bleeding assay was either conducted on mice immediately after the thrombosis study or on mice that were not used for the in vivo thrombosis study.
# WT mice [8] = details: mouse, in vivo; for mice considered to have bleeding side effects: male, 1 week
# Procedure: as §1
# TYMP and Lyn = biological target: T1, TYMP and Lyn (Homo sapiens, UniProt P19971); assay: Association of TYMP and Lyn (pull-down, Cos-7 cells); type: binding; details: TPI treatment
# T1 construct: overexpressing full length human TYMP and Lyn in Cos-7 cells; expressed in transfected cells; host or cells: COS-7
# T1 sequence (P19971 11-482): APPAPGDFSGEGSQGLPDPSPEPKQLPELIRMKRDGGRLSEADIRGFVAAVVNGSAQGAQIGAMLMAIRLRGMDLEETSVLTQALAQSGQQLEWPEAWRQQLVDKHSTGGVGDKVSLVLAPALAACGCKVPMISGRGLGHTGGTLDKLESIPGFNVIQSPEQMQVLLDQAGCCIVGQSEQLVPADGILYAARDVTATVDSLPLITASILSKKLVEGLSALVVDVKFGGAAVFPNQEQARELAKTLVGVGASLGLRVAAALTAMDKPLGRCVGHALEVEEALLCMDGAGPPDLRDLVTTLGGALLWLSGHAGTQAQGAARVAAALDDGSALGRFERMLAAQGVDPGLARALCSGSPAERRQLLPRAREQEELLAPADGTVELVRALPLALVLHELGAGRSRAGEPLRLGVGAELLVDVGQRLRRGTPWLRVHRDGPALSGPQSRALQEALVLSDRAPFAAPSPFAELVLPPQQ
# Excerpt: Generation of fusion proteins to determine that TYMP binds to LYN through the SH3 binding domain. Human SH3 domain nucleotides (hLynSH3, amino acids 63-123) were amplified by PCR and cloned into a mammalian expression vector pEBG (Addgene, plasmid #22227) with an N-terminal glutathione S-transferase (GST) affinity tag (pEBG-GST-hLynSH3). A pCDNA6B/his-hTYMP plasmid vector was previously constructed. pEBG-GST-hLynSH3 and pCDNA6B/his-hTYMP plasmids were co-transfected into COS-7 cells, lysed in a Pierce™ IP Lysis Buffer (ThermoFisher Scientific), and used for GST pull down assay. Eluates were used for Western blot assay to confirm the presence of TYMP.
# pEGFP-N1-human Lyn-GFP and pCDNA6B/his-hTYMP plasmids were also co-transfected into the COS-7 cells. TYMP was pulled down using immobilized Ni-NTA on magnetic sepharose beads (GE Healthcare Life Sciences) for His-tagged protein purification. His-hTYMP eluates were used for western blot assay for Lyn.
# [9] = bolus 17 and 1 mg/kg TPI, 5 min after injury
molecule,measurement,setting,value
"Oc1ncnc2c1ncn2[C@@H]1O[C@H](COC(c2ccccc2)(c2ccccc2)c2ccccc2)[C@@H](O)[C@H]1O [KIN59, 5′-O-tritylinosine]",platelet activation in vitro,platelets [1],dramatically inhibited
same,thrombosis in vivo,[2],dramatically inhibited
"[H]/N=C1\CCCN1Cc1[nH]c(=O)[nH]c(=O)c1Cl [TPI, tipiracil hydrochloride]",ADP-induced aggregation of Tymp−/− platelets,"platelets in PRP; 50 μM TPI, 2.5 μM ADP, Tymp−/− platelets",had no effect
same,ADP-induced WT platelet aggregation,"platelets in PRP; 50 μM TPI, 2.5 μM ADP, WT platelets",attenuated
same,CRP-induced platelet aggregation,"platelets in PRP; 50 μM TPI, 2 minutes pretreatment",completely blocked
same,collagen-induced platelet aggregation,"platelets in PRP; WT platelets, different concentrations of TPI, collagen 1 μg/ml",dose-dependently inhibited
same,CRP-induced platelet shape change,"platelets in PRP; dose-dependently at 250, 125 and 62.5 μM, 0.5 μg/ml CRP",inhibited
same,WD-induced body weight gain,C57Bl6 wild type mice,reduced; also recorded: decreases
same,platelet aggregation to the collagen-coated surface,"platelets [3]; 50 μM TPI, WT whole blood, shear 65 dyn/cm^2, 3 minutes",significantly reduced
same,platelet adhesion to collagen,"platelets [3]; TYMP inhibition, collagen-coated flow chamber",does not affect
same,hyperlipidemia-enhanced thrombosis,[4],dramatically reduced
same,atherosclerotic plaque areas formation in aortic root,Apoe^−/− mice,attenuated
same,lipid accumulation in livers,Apoe^−/− mice,attenuated
same,systemic safety in clinical trials,[5],systemically safe
same,in vivo thrombosis,WT mice [6]; gavage 60 μg/kg/day for 3 days,significantly inhibited
same,occlusive thrombus formation in the carotid arteries,WT mice [6]; intraperitoneal 17 mg/kg once per day for three days,completely inhibited
same,thrombosis,"WT mice [6]; intravenous injection 1.7 and 0.17 mg/kg, vs saline",significantly inhibited
same,effective dose (anti-thrombotic),WT mice [6]; without significantly affecting hemostasis,≤ 60 µg/kg/day
same,ADP-stimulated AKT phosphorylation,AKT,dramatically reduced
same,occlusive thrombus formation,WT mice [7]; TPI 50 μg/kg intravenous injection,did not inhibit
same,blood flow cessation,WT mice [7]; [9],no blood flow cessation
same,thrombosis formation (time),WT mice [7]; [9],significantly prolonged
same,lowest effective dose on inhibiting the growth of the on-site thrombus,WT mice [7]; bolus 5 min after injury,0.05 to 0.1 mg/kg
same,mice considered to have bleeding side effects,WT mice [8],28.5%
same,frequency of bleeding compared with clopidogrel-treated mice,WT mice [8],significantly decreased
same,association of TYMP and Lyn,TYMP and Lyn,disrupted
CC(=O)Oc1ccccc1C(=O)O [aspirin],inhibiting thrombosis,WT mice [6]; gavage aspirin 0.5 mg/kg/day for 7 days,no effect
same,lowest effective dose with significant antithrombotic effect,WT mice [6],1 mg/kg/day
same,lowest dose in inhibiting mouse thrombosis,WT mice [6],1 mg/kg
same,mice considered to have bleeding side effects,WT mice [8],50%
COC(=O)[C@H](c1ccccc1Cl)N1CCc2sccc2C1 [clopidogrel],lowest effective dose with significant antithrombotic effect,WT mice [6],2.5 mg/kg/day
same,lowest dose in inhibiting mouse thrombosis,WT mice [6],2.5 mg/kg
same,mice considered to have bleeding side effects,WT mice [8],75%
"tPA: tissue plasminogen activator (Activase), FDA-approved clot-busting drug",lysis of established thrombi,"WT mice [7]; bolus 1 mg/kg, 5 min after vascular injury",effectively lysed
same,lowest effective dose on thrombolysis,WT mice [7]; bolus 5 min after injury,0.25 to 0.5 mg/kg
same,thrombolytic action,WT mice [7]; tPA 0.25 and 0.125 mg/kg,no thrombolytic action
